Like-named read-outs stand apart in the source and are kept apart here.
How the values were obtained:
[1] = system: human breast xenograft models harboring PIK3CA mutations; assay: tumor growth in human breast xenograft models harboring PIK3CA mutations; type: in vivo
[2] = system: PI3K-pathway markers pAKT, pPRAS40, pS6; assay: downstream PI3K-pathway markers (pAKT, pPRAS40, pS6)
[3] = system: PIK3CA-mutant breast cancer cell lines; assay: proliferation and apoptosis of PIK3CA-mutant breast cancer cell lines; type: cell-based; details: nonclinical studies
[4] = biological target: Class I PI3K alpha isoform (Homo sapiens, UniProt P42336); details: PI3K alpha versus PI3K beta, delta and gamma isoforms; cited from earlier work
[5] = system: mutant p110 alpha; assay: degradation of mutant p110 alpha (nonclinical studies)
[6] = system: tumor cells bearing mutant PI3K; details: mutant PI3K over wild type (WT) PI3K cells; cited from earlier work
[7] = system: patients with HR+/HER2- breast cancer; details: in combination with letrozole; cited from earlier work
[8] = system: patients with HR+/HER2- breast cancer; details: in combination with fulvestrant; cited from earlier work

Chain of Class I PI3K alpha isoform (P42336 whole entry, canonical isoform): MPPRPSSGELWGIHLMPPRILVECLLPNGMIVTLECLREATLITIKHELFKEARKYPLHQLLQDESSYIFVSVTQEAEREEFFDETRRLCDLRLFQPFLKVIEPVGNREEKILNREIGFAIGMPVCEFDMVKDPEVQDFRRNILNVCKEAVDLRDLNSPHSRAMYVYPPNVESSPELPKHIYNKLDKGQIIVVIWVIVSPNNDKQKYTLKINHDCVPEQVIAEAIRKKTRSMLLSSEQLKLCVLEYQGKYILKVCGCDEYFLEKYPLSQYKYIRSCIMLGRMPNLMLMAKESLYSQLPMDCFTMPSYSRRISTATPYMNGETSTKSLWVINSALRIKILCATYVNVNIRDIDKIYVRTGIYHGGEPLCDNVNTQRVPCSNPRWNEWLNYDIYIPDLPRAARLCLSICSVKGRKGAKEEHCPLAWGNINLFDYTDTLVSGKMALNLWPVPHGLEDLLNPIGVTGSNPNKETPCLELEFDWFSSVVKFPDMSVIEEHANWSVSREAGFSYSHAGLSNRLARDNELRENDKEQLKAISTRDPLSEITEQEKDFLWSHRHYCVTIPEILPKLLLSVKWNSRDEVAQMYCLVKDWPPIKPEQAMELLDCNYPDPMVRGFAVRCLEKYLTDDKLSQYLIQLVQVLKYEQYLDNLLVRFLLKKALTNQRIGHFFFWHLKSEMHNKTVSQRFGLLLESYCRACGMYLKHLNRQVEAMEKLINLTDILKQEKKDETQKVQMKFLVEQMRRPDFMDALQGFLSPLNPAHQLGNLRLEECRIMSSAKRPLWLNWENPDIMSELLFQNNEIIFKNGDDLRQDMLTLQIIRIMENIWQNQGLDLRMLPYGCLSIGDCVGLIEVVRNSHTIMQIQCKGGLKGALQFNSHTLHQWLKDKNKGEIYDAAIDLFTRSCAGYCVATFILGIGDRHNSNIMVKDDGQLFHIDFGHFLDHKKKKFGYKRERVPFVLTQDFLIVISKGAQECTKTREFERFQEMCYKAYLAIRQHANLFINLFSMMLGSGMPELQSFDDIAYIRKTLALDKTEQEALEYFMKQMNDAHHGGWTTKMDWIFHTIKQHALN
Chain of Class I PI3K alpha isoform (P27986 whole entry partner, canonical isoform): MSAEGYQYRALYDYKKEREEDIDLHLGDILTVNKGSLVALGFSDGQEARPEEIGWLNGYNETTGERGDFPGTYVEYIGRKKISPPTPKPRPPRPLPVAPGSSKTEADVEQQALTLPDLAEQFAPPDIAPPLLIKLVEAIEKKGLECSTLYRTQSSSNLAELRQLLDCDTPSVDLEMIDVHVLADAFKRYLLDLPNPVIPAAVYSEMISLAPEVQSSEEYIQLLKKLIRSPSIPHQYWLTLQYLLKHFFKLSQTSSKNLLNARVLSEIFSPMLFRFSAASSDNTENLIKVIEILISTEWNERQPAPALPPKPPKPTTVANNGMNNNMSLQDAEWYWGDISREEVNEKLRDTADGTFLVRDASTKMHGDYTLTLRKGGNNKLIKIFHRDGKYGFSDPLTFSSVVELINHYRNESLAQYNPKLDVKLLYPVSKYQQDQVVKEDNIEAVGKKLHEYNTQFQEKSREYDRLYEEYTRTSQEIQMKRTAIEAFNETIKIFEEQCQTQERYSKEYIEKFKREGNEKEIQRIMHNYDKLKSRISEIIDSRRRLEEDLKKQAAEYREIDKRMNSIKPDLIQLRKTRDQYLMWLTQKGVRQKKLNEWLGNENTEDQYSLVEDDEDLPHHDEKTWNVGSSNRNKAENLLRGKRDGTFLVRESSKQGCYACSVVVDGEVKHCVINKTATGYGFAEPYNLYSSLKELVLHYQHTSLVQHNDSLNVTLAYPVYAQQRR

Row | SMILES | tumor growth in xenograft models [1] | downstream PI3K-pathway markers [2] | apoptosis of PIK3CA-mutant breast cancer cell lines [3] | proliferation of PIK3CA-mutant breast cancer cell lines [3] | fold less potent biochemical inhibition for other Class I PI3K isoforms [4] | degradation of mutant p110 alpha [5] | potency in mutant PI3K tumor cells over wild type PI3K cells [6] | patients requiring 1 dose reduction of palbociclib [7] | patients with cycle delays [7] | patients with dose holds [7] | patients requiring 1 dose reduction of palbociclib [8] | patients with cycle delays [8] | patients with dose holds [8]
1 | C[C@H](Nc1ccc2c(c1)OCCn1cc(N3C(=O)OC[C@H]3C(F)F)nc1-2)C(N)=O [GDC-0077, (S)-2-((2-((S)-4-(difluoromethyl)-2-oxooxazolidin-3-yl)-5,6-dihydrobenzo[f]imidazo[1,2-d][1,4]oxazepin-9-yl)amino)propanamide] | inhibits tumor growth | reduces downstream PI3K-pathway markers | induces apoptosis | inhibits proliferation | > 300 fold | specifically degrades mutant p110 alpha | increased potency | – | – | – | – | – | –
2 | CC(=O)c1c(C)c2cnc(Nc3ccc(N4CCNCC4)cn3)nc2n(C2CCCC2)c1=O [palbociclib, 6-acetyl-8-cyclopentyl-5-methyl-2-(5-(piperazin-1-yl)pyridin-2-ylamino)pyrido[2,3-d]pyrimidin-7(8H)-one] | – | – | – | – | – | – | – | 36% | 68% | 70% | 34% | 36% | 54%
